Test results from a melting point compilation (Tetko et al.; mined from patent text by program, amines drawn as free bases though some values may be those of a salt).
Residues, ends and D or L forms follow the SMILES beside them.

Structure (SMILES) | melting point [°C]
CN1CC2CN(C(=O)N3c4ccccc4C(=O)Nc4cccnc43)CC2C1 (centres undefined) | 157 to 159
O=C(N[C@@H]1CCc2cccc(N3CCNCC3)c2C1)c1ccc(N2CCOCC2)cc1 | 202 to 203
CCOc1ccc(C=O)c(Oc2ccc(Cl)cc2Cl)n1 | 95 to 96
CN(C)C(=O)c1cccnc1S(N)(=O)=O | 188 to 191
COC(=O)C(Cc1ccccc1)Nc1nnc(N)s1 (centres undefined) | 186 to 189
COC(=O)c1c(N)ncn1C1c2ccsc2CC1(C)C (centres undefined) | 161 to 162
COc1cc(C(C)C)c(Oc2cnc(N)nc2N)cc1C#CC1CC1 | 226 to 227
C=C1C(O)C(CO)OC1n1cc(Cl)c(N)nc1=O (centres undefined) | 168 to 170
CC(C)(C)OC(=O)N1CCCC(CCN2C(=O)C3(COc4cc5c(cc43)OCO5)c3ccccc32)C1 (centres undefined) | 64 to 67
Cc1cc(Br)ccc1-n1ccc(O)n1 | 208 to 210
CCNC(=O)c1cc(-c2ccc(OC)cc2)nn(CC2CCCC2)c1=O | 129
COc1c(N2C[C@H](CF)[C@](C)(N)C2)c(F)cc2c(=O)c(C(=O)O)cn(C3CC3)c12 | 226 to 229
COC(=O)c1cc2ccccc2nc1C(=O)OC | 105 to 106
O=C(Nc1ccc(C2CCN(Cc3ccccc3)CC2)cc1)c1ccccc1-c1ccc(C(F)(F)F)cc1 | 134
COc1cc(C(C)=O)cc(C#N)c1OC | 125 to 126
CN(C(=O)C(F)(F)F)C1(C)CN(c2c(F)cc3c(=O)c(C(=O)O)cn(C4CC4)c3c2F)C1 | 291 to 294
O=C(N[C@H](Cc1ccc(F)cc1)[C@@H](O)c1ccc(C(F)(F)F)cc1)C1CCCCC1 (racemic) | 220 to 221
CC(=O)Nc1nc(Cl)c(NC=O)c(Cl)n1 | 189 to 193
COc1ccc(Cl)cc1N1C(=O)CN(C)C1=S | 245 to 247
C=CC1CC2=CCCCC2C2CCC3(C)C(O)CCC3C12 (centres undefined) | 117 to 121
C=C(C)C(=O)c1cc(O)c(O)c([N+](=O)[O-])c1 | 98 to 102
CC(C)[C@H]1NC(=O)[C@H]1N (relative stereo) | 91 to 93

Structure (SMILES) | melting point [°C]
CN1C(=O)c2cccc(S(=O)(=O)NC(C)(C)C)c2C1=O | 160 to 163
COc1cc(OC)n2ncc(Br)c2n1 | 188 to 190
Cc1c(CO)c2c(c(C)c1NC(=O)CC(C)(C)C)C(c1ccc(C(C)C)cc1)CO2 (centres undefined) | 274 to 275
CC(C)NCC(O)COc1ccccc1-c1ccc(=S)[nH]n1 (centres undefined) | 166 to 168
Cc1c(C)c2c(c(C)c1N)C(c1ccc(C(C)C)cc1)C1(CCCC1)O2 (centres undefined) | 132 to 133
COC(=O)C(Cc1ccccc1)NC(=O)C(CC(=O)O)NC(=O)C1CCCN1 (stereo not drawn) (H-Pro-Asp-Phe-OMe; configuration not given here) | 238 to 242
CCN(CC)Cc1cc(O)ccc1O | 114
CC(=O)OC1CCC2C3CCC4C(=O)CCCC4(C)C3CCC12C (centres undefined) | 160 to 163
CSc1nc2c(C)cccc2c2c1CCN2c1ccccc1C | 111 to 113
Cc1ncnn1-c1ccc(C#N)c(F)c1 | 89 to 90
Cc1nc(O)cc(C(F)(F)F)n1 | 141 to 143
CC(=O)CC(=O)Nc1cccc(OC(=O)NC(C)C)c1 | 161
COc1ccc(C#Cc2cc(C(=O)O)nc(C(=O)O)c2)cc1 | > 300
OCC1OC(n2c(Cl)nc3ccc(Br)cc32)C(O)C1O (centres undefined) | 152 to 153
CCCCCCN1CCN(Cc2ccc(N)cc2)C(=O)C1=O | 99 to 102
CCC1(c2cccs2)OCC(=O)Nc2ccc(-c3csc(C#N)c3)cc21 (centres undefined) | 202 to 204
CCOC(=O)c1nc(-c2cccc([N+](=O)[O-])c2)cs1 | 149 to 150
CSc1nc(C)cc(-c2ccc(C(F)(F)F)cc2)n1 | 77 to 80
Cc1ccc(C2COc3c(C)c(C)c(Br)c(C)c32)nc1 (centres undefined) | 105 to 106
Cc1oc(-c2ccccc2)nc1CCCCCC(CO)CO | 71 to 74
CNC(=O)[C@H]1CN(c2ccc3c(c2)sc(=O)n3C)C(=O)O1 | 264 to 267
CCCCCCCCOc1cccc2c1C(=O)c1cccc(OCCCCCCCC)c1C2=O | 90 to 94

Structure (SMILES) | melting point [°C]
Cc1ncsc1C(C)(O)c1ccoc1 (centres undefined) | 102 to 104
CC(OCc1ccc(-c2ccc(Cl)cc2)cc1)(C(=O)O)C(F)(F)F (centres undefined) | 135 to 136
C=C(c1ccc(OC)c(N)c1)c1ccc(OC)c(OCC)c1 | 91 to 93
CCCCSC(=S)N1C(CO)Cc2c([nH]c3ccccc23)C1C (centres undefined) | 110 to 113
CCCc1c(COCCOc2ccc(-c3nnn[nH]3)cc2)ccc(C(C)=O)c1O | 170 to 172
CNC(=O)N1CC(=O)Nc2ccc([N+](=O)[O-])cc2C1c1ccccc1 (centres undefined) | 176 to 180
Cc1[nH]c(Cc2ccccc2)nc1C=O | 171 to 173
COc1cc2c(cc1Cl)NC(=O)c1ccccc1S2 | 280 to 283
CCOC(=O)c1ccc(N2CCC(NCC(O)COc3cccc4[nH]c(=O)[nH]c34)CC2)nc1 (centres undefined) | 191 to 193
C=Cc1ccc(CCOC(=O)CC(C)NC(N)=O)cc1 (centres undefined) | 117 to 119
O=P(Oc1ccc2ccccc2c1)(Oc1ccc2ccccc2c1)Oc1ccc2ccccc2c1 | 110 to 111
CCCCCCCCCCCCCCCCCCOc1cc(OCCCOc2ccc(S(C)(=O)=O)cc2)cc(N(CC(=O)O)CC(=O)O)c1 | 118 to 120
CC(C)c1oc(C=Cc2ccccc2)nc1CC(=O)O | 155 to 156
CCN(Cc1cc(Br)ccc1OCC1CC1)c1ccc(C(=O)O)cn1 | 175 to 177
COC(=O)CCON1C(C)(C)CC(OCc2ccc(COC3CC(C)(C)N(OCCC(=O)OC)C(C)(C)C3)cc2)CC1(C)C | 84 to 85
CC1(COC2(C(F)(F)F)CN(C3CC3)C(=O)Nc3ccc(Cl)cc32)CC1 (centres undefined) | 166 to 167
CSC(=CC(=O)c1ccccc1C)SC | 96.2
CCOC(=O)c1nc(Br)n2c1c(=O)n(C)c1cc(C(F)(F)F)ccc12 | 205 to 207
CNC(=S)N(C)NC(=O)c1cccs1 | 176 to 178
COC(=O)c1ccc2cc(OCC(=O)O)ccc2c1 | > 285
C=Cc1cc(C)c(C(=O)N=C(N)N)cc1S(C)(=O)=O | 223 to 226

Other lines, results leading:

melting point [°C] | Structure (SMILES)
198 | CN1CCN(C[C@H]2C(=O)Nc3ccccc3S[C@H]2c2ccccc2)CC1 (relative stereo)
188 to 189 | COc1ccc(S(=O)(=O)Nc2cccnc2Nc2ccc(OC(=O)C(C)(C)C)cc2)cc1
192 to 193 | CC(C)(C(=O)OCC(=O)c1ccccc1)n1c(=O)[nH]c2ccc(F)cc2c1=O
197 to 198 | CC(Cc1ccc(S(=O)(=O)NC(=O)NC2CCCCC2)cc1)NC(=O)N1Cc2ccccc2C1=O (centres undefined)
171 to 173 | O=C1CCC(N2C(=O)c3ccc(CNC(=O)c4ccc(SC(F)(F)F)cc4)cc3C2=O)C(=O)N1 (centres undefined)
54 to 56 | BrCc1cccc(-c2ccccc2)c1
73 to 75 | O=S(=O)(Nc1cc(Cl)c(Oc2nc3ccc(Cl)cc3s2)c(Cl)c1)c1ccc(Cl)cc1Cl
154 to 155 | O=C(CC1CCN(Cc2ccccc2)CC1)c1ccc(CO)cc1
202 to 203 | N#Cc1ccc(N(Cc2ccc(OS(N)(=O)=O)cc2)n2cnnc2)cc1-c1cc2ccccc2o1
156 to 157 | CC(C)(NC(=O)CNC(=O)c1ccccc1)c1ccccc1
123 to 124 | Cc1ccc(S(=O)(=O)OCCCC(O)c2cccc3c(=O)c(C)c(-c4ccccc4)oc23)cc1 (centres undefined)
251 to 252 | CC(C)(C)CN1C(=O)[C@@H](CC(=O)NCc2nnn[nH]2)O[C@H](c2ccccc2Cl)c2cc(Cl)ccc21 (relative stereo)
154 to 155 | Nc1nc2ccccc2c2c1ncn2CCCCNC(=O)Oc1ccc2ccccc2c1
216 to 221 | CC(OC(N)=O)c1cc2c3ccccc3n(C)c(=O)n2n1 (centres undefined)
215 to 216 | O=Cc1c2ccccc2c(Br)c2ccccc12
98 to 100 | CC(C)(C)OC(=O)NCc1cccc(OCCC2Oc3ccccc3N(Cc3cccc(Cl)c3)C2=O)c1 (centres undefined)
130 to 135 | O=C1NCC(c2ccc(Cl)cc2)C1c1ccccc1 (centres undefined)

melting point [°C] | Structure (SMILES)
113 to 116 | CCOC(=O)C1=C(C)Nc2ccccc2N(C)C1c1cccc([N+](=O)[O-])c1 (centres undefined)
167 to 170 | CC(C)CCc1c(-c2ccc(S(N)(=O)=O)cc2)cnn(-c2cccc(Cl)c2)c1=O
102 to 103 | CC(Sc1cc2ccccc2[nH]1)(C(=O)OCc1ccccc1)c1ccccc1 (centres undefined)
210 to 213 | CCS(=O)(=O)c1nn2c(-c3ccc(OC)cc3)nnc2c2ccccc12
261 | Cn1cc(C(=O)O)c(=O)c2c3ccc(F)c(N4CCN(c5cccc(C(F)(F)F)c5)CC4)c3ncc21
182 to 186 | Cc1c(NC(=O)c2ccc(-c3ccc(F)cc3)cc2)ccc2cc(C(O)c3ccccc3)cnc12 (centres undefined)
158 to 161 | O=C1NC(=O)c2c1c(-c1ccccc1Cl)cc1c2c(Br)cn1CCCN1CCCC1
91 to 92 | CCc1nccn1-c1nc(-c2ccc(Cl)cc2)c(CCCOc2ccccc2C)o1
107 to 111 | C[C@@H]1Cc2ccsc2[C@H](C)N1CCNC(=O)c1ccc(NS(=O)(=O)c2ccc(Cl)cc2)cc1 (relative stereo)
77.5 to 78.5 | O=C(O)CCCCCCC=C(c1ccccc1)c1ccccc1
177 to 178 | CCCOc1ccccc1-c1nc(NC(=O)CCC)cc(=O)[nH]1
257 to 258 | Cn1cncc1CCNC(=O)c1[nH]c2ccc(Cl)cc2c1S(=O)(=O)c1ccccc1
198 to 202 | COc1ccc(Cn2c(N)c(NC(=O)C(C)(C)OCc3ccccc3)c(=O)[nH]c2=S)cc1OC1CCCC1
158 to 159 | Cc1c(NC(=O)CC(C)(C)C)cc2c(c1C)OC(C)(C)C2CCc1ccccc1 (centres undefined)
148 to 150 | CCN(CC)CC1CCCCN1CCCNC(=O)N1c2ccccc2NC(=O)c2ccccc21 (centres undefined)
247 to 249 | CC(C)c1ccc(-c2cc(-c3cccc(C(=O)O)c3)ccn2)cc1
144 to 147 | CCCC1=C(C(=O)OCC)C(c2ccccc2Cl)c2cn(C(=O)OC(C)(C)C)nc2N1 (centres undefined)
